Data reported in ChEMBL document CHEMBL1149696, “Synthesis and antibacterial activity of C11, C12-cyclic urea analogues of ketolides” (2007).
Converted amounts (≈) assume the structure as drawn.

Tests used:
Assay type in all cases: functional
[1] = tested on: Staphylococcus aureus; experiment: Antibacterial activity against erythromycin susceptible Staphylococcus aureus 0052
[2] = tested on: Staphylococcus aureus; experiment: Antibacterial activity against erm containing Staphylococcus aureus 1117
[3] = tested on: Streptococcus pyogenes; experiment: Antibacterial activity against erythromycin susceptible Streptococcus pyogenes 203
[4] = tested on: Streptococcus pyogenes; experiment: Antibacterial activity against erm containing Streptococcus pyogenes 1079
[5] = tested on: Streptococcus pneumoniae; experiment: Antibacterial activity against erythromycin susceptible Streptococcus pneumoniae 1016
[6] = tested on: Streptococcus pneumoniae; experiment: Antibacterial activity against erm containing Streptococcus pneumoniae 1095
[7] = tested on: Streptococcus pneumoniae; experiment: Antibacterial activity against mef containing Streptococcus pneumoniae 1175
[8] = tested on: Haemophilus influenzae; experiment: Antibacterial activity against Haemophilus influenzae 1100
[9] = tested on: Staphylococcus aureus; experiment: Antibacterial activity against erythromycin susceptible Staphylococcus aureus 1146
[10] = tested on: Staphylococcus aureus; experiment: Antibacterial activity against erm containing Staphylococcus aureus 1095
[11] = tested on: Haemophilus influenzae; experiment: Antibacterial activity against Haemophilus influenzae 1218

| Structure (SMILES) | MIC [1] [µg/mL] | MIC [2] [µg/mL] | MIC [3] [µg/mL] | MIC [4] [µg/mL] | MIC [5] [µg/mL] | MIC [6] [µg/mL] | MIC [7] [µg/mL] | MIC [8] [µg/mL] | MIC [9] [µg/mL] | MIC [10] [µg/mL] | MIC [11] [µg/mL] |
| --- | --- | --- | --- | --- | --- | --- | --- | --- | --- | --- | --- |
| CC[C@H]1OC(=O)[C@@](C)(F)C(=O)[C@H](C)[C@@H](O[C@@H]2O[C@H](C)C[C@H](N(C)C)[C@H]2O)[C@@](C)(OC)C[C@@H](C)C(=O)[C@H](C)[C@H]2N(C/C=C/Cn3cnc4cccnc43)C(=O)N[C@]12C | – | – | 0.063 (≈ 0.0787 µM) | 2 (≈ 2.5 µM) | 0.063 (≈ 0.0787 µM) | 0.063 (≈ 0.0787 µM) | 0.25 (≈ 0.312 µM) | – | 0.063 (≈ 0.0787 µM) | 64 (≈ 79.9 µM) | 0.5 (≈ 0.624 µM) |
| C=CCN1C(=O)N(CCCCn2cnc(-c3cccnc3)c2)[C@@H]2[C@@H](C)C(=O)[C@H](C)C[C@](C)(OC)[C@H](O[C@@H]3O[C@H](C)C[C@H](N(C)C)[C@H]3O)[C@@H](C)C(=O)[C@](C)(F)C(=O)O[C@H](CC)[C@]21C | 0.049 (≈ 0.0564 µM) | 100 (≈ 115 µM) | 0.012 (≈ 0.0138 µM) | 64 (≈ 73.6 µM) | 0.025 (≈ 0.0288 µM) | 0.05 (≈ 0.0575 µM) | 0.39 (≈ 0.449 µM) | 0.5 (≈ 0.575 µM) | – | – | – |
| CC[C@H]1OC(=O)[C@H](C)C(=O)[C@H](C)[C@@H](O[C@@H]2O[C@H](C)C[C@H](N(C)C)[C@H]2O)[C@@](C)(OC)C[C@@H](C)C(=O)[C@H](C)[C@H]2N(C/C=C/Cn3cnc(-c4cccnc4)c3)C(=O)N[C@]12C | – | – | 0.063 (≈ 0.0779 µM) | 32 (≈ 39.6 µM) | 0.063 (≈ 0.0779 µM) | 0.063 (≈ 0.0779 µM) | 4 (≈ 4.94 µM) | – | 0.25 (≈ 0.309 µM) | 64 (≈ 79.1 µM) | 2 (≈ 2.47 µM) |
| CC[C@H]1OC(=O)[C@H](C)C(=O)[C@H](C)[C@@H](O[C@@H]2O[C@H](C)C[C@H](N(C)C)[C@H]2O)[C@@](C)(OC)C[C@@H](C)C(=O)[C@H](C)[C@H]2N(C/C=C/Cn3cnc4cccnc43)C(=O)N[C@]12C | – | – | 0.063 (≈ 0.0805 µM) | 16 (≈ 20.4 µM) | 0.063 (≈ 0.0805 µM) | 0.063 (≈ 0.0805 µM) | 1 (≈ 1.28 µM) | – | 0.13 (≈ 0.166 µM) | 64 (≈ 81.7 µM) | 1 (≈ 1.28 µM) |
| CC[C@H]1OC(=O)[C@H](C)C(=O)[C@H](C)[C@@H](O[C@@H]2O[C@H](C)C[C@H](N(C)C)[C@H]2O)[C@@](C)(OC)C[C@@H](C)C(=O)[C@H](C)[C@H]2N(CCCCn3cnc(-c4cccnc4)c3)C(=O)N[C@]12C | 0.039 (≈ 0.0481 µM) | 100 (≈ 123 µM) | 0.024 (≈ 0.0296 µM) | 32 (≈ 39.5 µM) | 0.024 (≈ 0.0296 µM) | 0.049 (≈ 0.0604 µM) | 6.3 (≈ 7.77 µM) | 8 (≈ 9.86 µM) | – | – | – |
| CC[C@H]1OC(=O)[C@@](C)(F)C(=O)[C@H](C)[C@@H](O[C@@H]2O[C@H](C)C[C@H](N(C)C)[C@H]2O)[C@@](C)(OC)C[C@@H](C)C(=O)[C@H](C)[C@H]2N(CCCCn3cnc(-c4cccnc4)c3)C(=O)N[C@]12C | 0.049 (≈ 0.0591 µM) | 100 (≈ 121 µM) | 0.006 (≈ 0.00724 µM) | 4 (≈ 4.82 µM) | 0.006 (≈ 0.00724 µM) | 0.012 (≈ 0.0145 µM) | 0.78 (≈ 0.941 µM) | 2 (≈ 2.41 µM) | – | – | – |
| CC[C@H]1OC(=O)[C@H](C)C(=O)[C@H](C)[C@@H](O[C@@H]2O[C@H](C)C[C@H](N(C)C)[C@H]2O)[C@](C)(OC)C[C@@H](C)C(=O)[C@H](C)[C@H]2N(CCCCn3cnc(-c4cccnc4)c3)C(=O)O[C@]12C [TELITHROMYCIN] | 0.049 (≈ 0.0603 µM) | 100 (≈ 123 µM) | 0.012 (≈ 0.0148 µM) | 32 (≈ 39.4 µM) | 0.013 (≈ 0.016 µM) | 0.05 (≈ 0.0616 µM) | 0.13 (≈ 0.16 µM) | 0.5 (≈ 0.616 µM) | 0.063 (≈ 0.0776 µM) | 64 (≈ 78.8 µM) | 0.5 (≈ 0.616 µM) |

The remaining lines, values ahead:

| MIC [1] [µg/mL] | MIC [2] [µg/mL] | MIC [3] [µg/mL] | MIC [4] [µg/mL] | MIC [5] [µg/mL] | MIC [6] [µg/mL] | MIC [7] [µg/mL] | MIC [8] [µg/mL] | MIC [9] [µg/mL] | MIC [10] [µg/mL] | MIC [11] [µg/mL] | Structure (SMILES) |
| --- | --- | --- | --- | --- | --- | --- | --- | --- | --- | --- | --- |
| 0.024 (≈ 0.0285 µM) | 100 (≈ 119 µM) | 0.024 (≈ 0.0285 µM) | 8 (≈ 9.49 µM) | 0.013 (≈ 0.0154 µM) | 0.025 (≈ 0.0297 µM) | 0.2 (≈ 0.237 µM) | 2 (≈ 2.37 µM) | – | – | – | CC[C@H]1OC(=O)[C@@](C)(F)C(=O)[C@H](C)[C@@H](O[C@@H]2O[C@H](C)C[C@H](N(C)C)[C@H]2O)[C@@](C)(OC)C[C@@H](C)C(=O)[C@H](C)[C@H]2N(CCCCn3cnc(-c4cccnc4)c3)C(=O)N(C)[C@]12C |
| 0.098 (≈ 0.111 µM) | 100 (≈ 113 µM) | 0.049 (≈ 0.0555 µM) | 32 (≈ 36.2 µM) | 0.05 (≈ 0.0566 µM) | 0.1 (≈ 0.113 µM) | 0.39 (≈ 0.442 µM) | 0.25 (≈ 0.283 µM) | – | – | – | C/C=C/CN1C(=O)N(CCCCn2cnc(-c3cccnc3)c2)[C@@H]2[C@@H](C)C(=O)[C@H](C)C[C@](C)(OC)[C@H](O[C@@H]3O[C@H](C)C[C@H](N(C)C)[C@H]3O)[C@@H](C)C(=O)[C@](C)(F)C(=O)O[C@H](CC)[C@]21C |
| – | – | 0.063 (≈ 0.0762 µM) | 4 (≈ 4.84 µM) | 0.063 (≈ 0.0762 µM) | 0.063 (≈ 0.0762 µM) | 0.25 (≈ 0.302 µM) | – | 0.063 (≈ 0.0762 µM) | 64 (≈ 77.4 µM) | 0.5 (≈ 0.605 µM) | CC[C@H]1OC(=O)[C@@](C)(F)C(=O)[C@H](C)[C@@H](O[C@@H]2O[C@H](C)C[C@H](N(C)C)[C@H]2O)[C@@](C)(OC)C[C@@H](C)C(=O)[C@H](C)[C@H]2N(C/C=C/Cn3cnc(-c4cccnc4)c3)C(=O)N[C@]12C |
| – | – | 0.063 (≈ 0.0749 µM) | 4 (≈ 4.76 µM) | 0.063 (≈ 0.0749 µM) | 0.063 (≈ 0.0749 µM) | 0.063 (≈ 0.0749 µM) | – | 0.063 (≈ 0.0749 µM) | 64 (≈ 76.1 µM) | 1 (≈ 1.19 µM) | CC[C@H]1OC(=O)[C@@](C)(F)C(=O)[C@H](C)[C@@H](O[C@@H]2O[C@H](C)C[C@H](N(C)C)[C@H]2O)[C@@](C)(OC)C[C@@H](C)C(=O)[C@H](C)[C@H]2N(C/C=C/Cn3cnc(-c4cccnc4)c3)C(=O)N(C)[C@]12C |
| 0.049 (≈ 0.0572 µM) | 100 (≈ 117 µM) | 0.024 (≈ 0.028 µM) | 32 (≈ 37.3 µM) | 0.013 (≈ 0.0152 µM) | 0.025 (≈ 0.0292 µM) | 0.39 (≈ 0.455 µM) | 0.25 (≈ 0.292 µM) | – | – | – | CC[C@H]1OC(=O)[C@@](C)(F)C(=O)[C@H](C)[C@@H](O[C@@H]2O[C@H](C)C[C@H](N(C)C)[C@H]2O)[C@@](C)(OC)C[C@@H](C)C(=O)[C@H](C)[C@H]2N(CCCCn3cnc(-c4cccnc4)c3)C(=O)N(CC)[C@]12C |
| 0.098 (≈ 0.109 µM) | 100 (≈ 111 µM) | 0.098 (≈ 0.109 µM) | 64 (≈ 71.3 µM) | 0.05 (≈ 0.0557 µM) | 0.1 (≈ 0.111 µM) | 0.78 (≈ 0.869 µM) | 0.5 (≈ 0.557 µM) | – | – | – | CC/C=C/CN1C(=O)N(CCCCn2cnc(-c3cccnc3)c2)[C@@H]2[C@@H](C)C(=O)[C@H](C)C[C@](C)(OC)[C@H](O[C@@H]3O[C@H](C)C[C@H](N(C)C)[C@H]3O)[C@@H](C)C(=O)[C@](C)(F)C(=O)O[C@H](CC)[C@]21C |
| – | – | 0.063 (≈ 0.0773 µM) | 2 (≈ 2.45 µM) | 0.063 (≈ 0.0773 µM) | 0.063 (≈ 0.0773 µM) | 0.13 (≈ 0.16 µM) | – | 0.063 (≈ 0.0773 µM) | 64 (≈ 78.5 µM) | 0.25 (≈ 0.307 µM) | CC[C@H]1OC(=O)[C@@](C)(F)C(=O)[C@H](C)[C@@H](O[C@@H]2O[C@H](C)C[C@H](N(C)C)[C@H]2O)[C@@](C)(OC)C[C@@H](C)C(=O)[C@H](C)[C@H]2N(C/C=C/Cn3cnc4cccnc43)C(=O)N(C)[C@]12C |
